This is an account of results in patent US6608087B1, “Gyrase inhibitors and uses thereof” (Vertex Pharmaceuticals Incorporated, priority 2000, dated 2003).

Broadly, the Ki is the dissociation constant of the complex between target and ligand, obtained from inhibition or displacement.

Where only a bound is given, the exact number is not on record here.

This assay addresses E. coli gyrase A2B2 (Escherichia coli, UniProt P0AES6). Briefly: ATPase assay, E. coli gyrase A2B2 (coupled pyruvate kinase/lactate dehydrogenase). In kind it is biochemical. The conditions noted are these: 30° C., 0.9 mM ATP, 40 nM enzyme, read-out: Activity against E. coli gyrase (Ki). How it is done:
The ATP hydrolysis activity of DNA gyrase was measured by coupling the production of ADP through pyruvate kinase/lactate dehydrogenase to the oxidation of NADH. This method has been described previously. (Tamura and Gellert, 1990, J. Biol. Chem.265, 21342-21349).
ATPase assays were carried out at 30° C. in buffered solutions containing 100 mM TRIS pH 7.6, 1.5 mM MgCl2, and 150 mM KCl. The coupling system contained (final concentrations) 2.5 mM phosphoenol pyruvate, 200 μM nicotinamide adenine dinucleotide (NADH), 1 mM DTT, 30 ug/ml pyruvate kinase, and 10 ug/ml lactate dehydrogenase. 40 nM enzyme (374 kDa Gyr A2B2 from E coli) and a DMSO solution of the inhibitor to a final concentration of 4% were added and the reaction mixture allowed to incubate for 10 minutes at 30° C. The reaction was then started by the addition of ATP to a final concentration of 0.9 mM and the rate of NADH disappearance at 340 nm, measured over the course of 10 minutes. Ki values were determined from rate versus. inhibitor concentration profiles.
With `CCOC(=O)c1cc(-c2sc(-c3ccccc3)nc2CN2CCOCC2)n[nH]1` [IA-66], the Ki was over 1.5 µM. The same measure for `COC(=O)NCc1cc(-c2sc(-c3ccccc3)nc2N2CCN(Cc3ccccc3)CC2)n[nH]1` [IA-18]: 0.5 to 1.5 µM. The value for `CCOC(=O)c1cc(-c2sc(-c3ccccc3)nc2CN(CC)CC)n[nH]1` [IA-69] was over 1.5 µM. The same measure for `CCOC(=O)c1cc(-c2sc(-c3ccccc3)nc2CN2CCNCC2)n[nH]1` [IA-67]: 0.5 to 1.5 µM. For the compound `COC(=O)NCc1cc(-c2sc(-c3ccccc3)nc2N2CCNCC2)n[nH]1` [IA-37], the Ki was over 1.5 µM. `COC(=O)NCc1cc(-c2sc(-c3ccccc3)nc2N2CCCCC2C)n[nH]1` (centres unmarked) [IA-30]: the inhibitory constant (Ki) was under 0.5 µM. The same measure for `CCOC(=O)c1cc(-c2cnn(-c3cccc(Cl)c3)c2C)n[nH]1` [ID-28, 1′-(3-Chloro-phenyl)-5′-methyl-1H,1′H-[3,4′]bipyrazolyl-5-carboxylic Acid Ethyl Ester]: over 1.5 µM.

Consider `CC(C)OC(=O)NCc1cc(-c2sc(-c3ccccc3)nc2-c2ccccc2)n[nH]1` [IA-46], for which the Ki is over 1.5 µM.
